Experimental data as given in ChEMBL document CHEMBL1146226, “Synthesis of desformylflustrabromine and its evaluation as an alpha4beta2 and alpha7 nACh receptor modulator” (Bioorg Med Chem Lett, 2007).

How the values were obtained:
[1] = molecular target: Neuronal acetylcholine receptor subunit alpha-7 (Homo sapiens, UniProt P36544); assay: Activity at human alpha7 nACh receptor expressed in Xenopus oocytes assessed as inhibition of acetyl chlone-induced currents by two-electrode voltage clamp method; type: cell-based, Oocyte
Sequence of Neuronal acetylcholine receptor subunit alpha-7 (P36544 whole entry): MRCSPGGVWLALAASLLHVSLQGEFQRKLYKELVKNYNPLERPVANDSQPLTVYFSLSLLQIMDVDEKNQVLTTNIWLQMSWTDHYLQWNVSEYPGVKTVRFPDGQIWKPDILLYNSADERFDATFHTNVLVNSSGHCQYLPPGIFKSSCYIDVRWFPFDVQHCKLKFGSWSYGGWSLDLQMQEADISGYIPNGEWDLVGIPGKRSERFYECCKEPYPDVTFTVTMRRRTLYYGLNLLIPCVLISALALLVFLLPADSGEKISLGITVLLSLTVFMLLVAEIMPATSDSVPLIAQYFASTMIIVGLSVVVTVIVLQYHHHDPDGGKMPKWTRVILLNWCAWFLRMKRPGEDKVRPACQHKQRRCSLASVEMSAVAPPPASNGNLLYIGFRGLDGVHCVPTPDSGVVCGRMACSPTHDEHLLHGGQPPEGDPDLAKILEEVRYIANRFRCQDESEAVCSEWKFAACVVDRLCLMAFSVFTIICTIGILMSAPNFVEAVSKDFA

[2] = molecular target: T1, Neuronal acetylcholine receptor; alpha4/beta2 (Homo sapiens, UniProt P17787+P43681); assay: Activity at human alpha-4-beta-2 nACh receptor expressed in Xenopus oocytes assessed as inhibition of acetyl chlone-induced currents by two-electrode voltage clamp method; type: cell-based, Oocyte
T1 sequence (P17787 whole entry): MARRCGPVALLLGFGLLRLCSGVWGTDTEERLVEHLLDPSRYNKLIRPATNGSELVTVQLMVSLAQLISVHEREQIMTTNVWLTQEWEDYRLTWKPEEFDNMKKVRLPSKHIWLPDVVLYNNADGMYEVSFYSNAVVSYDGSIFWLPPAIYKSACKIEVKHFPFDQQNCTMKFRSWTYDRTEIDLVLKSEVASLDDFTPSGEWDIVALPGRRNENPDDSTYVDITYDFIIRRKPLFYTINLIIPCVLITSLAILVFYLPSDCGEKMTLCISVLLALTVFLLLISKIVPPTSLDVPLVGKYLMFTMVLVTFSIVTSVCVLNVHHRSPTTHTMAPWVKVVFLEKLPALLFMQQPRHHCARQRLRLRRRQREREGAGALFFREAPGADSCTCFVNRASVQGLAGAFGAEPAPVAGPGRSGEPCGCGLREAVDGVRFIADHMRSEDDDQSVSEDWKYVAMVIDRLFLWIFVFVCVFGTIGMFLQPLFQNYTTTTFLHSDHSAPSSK
T1 sequence (P43681 whole entry): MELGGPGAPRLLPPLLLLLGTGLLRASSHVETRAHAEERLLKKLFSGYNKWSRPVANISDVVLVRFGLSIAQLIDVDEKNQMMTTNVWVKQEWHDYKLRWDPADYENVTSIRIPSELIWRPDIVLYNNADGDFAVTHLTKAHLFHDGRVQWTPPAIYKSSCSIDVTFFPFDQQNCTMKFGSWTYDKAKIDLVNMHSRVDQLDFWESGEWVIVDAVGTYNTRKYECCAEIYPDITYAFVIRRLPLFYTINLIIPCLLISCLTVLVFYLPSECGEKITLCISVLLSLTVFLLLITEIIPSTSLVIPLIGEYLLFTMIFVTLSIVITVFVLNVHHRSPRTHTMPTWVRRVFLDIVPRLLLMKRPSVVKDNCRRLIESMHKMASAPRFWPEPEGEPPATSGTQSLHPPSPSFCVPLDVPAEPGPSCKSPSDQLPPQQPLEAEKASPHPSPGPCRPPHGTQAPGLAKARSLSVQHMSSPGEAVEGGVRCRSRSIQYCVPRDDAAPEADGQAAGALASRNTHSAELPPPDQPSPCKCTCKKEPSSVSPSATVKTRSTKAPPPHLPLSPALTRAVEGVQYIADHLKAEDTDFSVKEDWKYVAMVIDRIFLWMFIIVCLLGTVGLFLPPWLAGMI

[3] = molecular target: T1, Neuronal acetylcholine receptor; alpha4/beta2; assay: Activity at human alpha-4-beta-2 nACh receptor expressed in Xenopus oocytes assessed as potentiation of acetyl chlone-induced currents by two-electrode voltage clamp method relative to control; type: cell-based; details: Oocyte

Row | Compound | IC50 [1] [µM] | IC50 [2] [µM] | Activity [3] [%]
1 | CNCCc1cn(CC=C(C)C)c2cc(Br)ccc12 [DEFORMYLFLUSTRABROMINE B] | 209 |  | 
2 | C=CC(C)(C)c1[nH]c2cc(Br)ccc2c1CCNC [DESFORMYLFLUSTRABROMINE] | 44 | 150 | 295
